Legend:
Test in all cases: Test D controlled growth environment herbicide test, pre- and postemergence
Assay type in all cases: in vivo
[1] = test system: Russian thistle (Salsola kali)
How it was run: (§1)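 Pre-emergence: seeds sown in silt loam soil were sprayed with compound in a non-phytotoxic solvent mix containing surfactant. Post-emergence: plants at 2 to 18 cm (1- to 4-leaf stage) in peat moss/vermiculite medium got the same formulation. Visual 0–100 rating versus controls after 14 to 21 d.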

[2] = test system: bluegrass (annual bluegrass, Poa annua)
How it was run: as §1

[3] = test system: bromegrass, downy (downy bromegrass, Bromus tectorum)
How it was run: as §1

[4] = test system: buckwheat, wild (wild buckwheat, Polygonum convolvulus)
How it was run: as §1

[5] = test system: canarygrass (Phalaris minor)
How it was run: as §1

[6] = test system: chamomile (scentless chamomile, Matricaria inodora)
How it was run: as §1

[7] = test system: field poppy (Papaver rhoeas)
How it was run: as §1

[8] = test system: field violet (Viola arvensis)
How it was run: as §1

[9] = test system: mustard, wild (wild mustard, Sinapis arvensis)
How it was run: as §1

[10] = test system: oat, wild (wild oat, Avena fatua)
How it was run: as §1

[11] = test system: oilseed rape (Brassica napus)
How it was run: as §1

[12] = test system: radish, wild (wild radish, Raphanus raphanistrum)
How it was run: as §1

[13] = test system: wheat, spring (spring wheat, Triticum aestivum)
How it was run: as §1

[14] = Postemergence, 31 g ai/ha, scale 0 to 100 (0 no effect, 100 complete control)
[15] = Postemergence, 125 g ai/ha, visual rating on scale 0 (no effect) to 100 (complete control), 14 to 21 d
[16] = Postemergence, 250 g ai/ha, scale 0 to 100 (0 no effect, 100 complete control)
[17] = Preemergence, 125 g ai/ha, scale 0 to 100 (0 no effect, 100 complete control)
[18] = Preemergence, 250 g ai/ha, scale 0 to 100 (0 no effect, 100 complete control)
[19] = postemergence, 62 g ai/ha, scale 0 to 100, 0 no effect, 100 complete control
[20] = Preemergence, 62 g ai/ha, scale 0 to 100 (0 no effect, 100 complete control)

## CCOC(=O)Oc1c(C)nn(C)c(=O)c1-c1c(C)sc2ccc(C)cc12 [Compound 82]
[1]; [14]
  Russian Thistle plant response rating: 65
[1]; [15]
  Plant response rating, Russian Thistle: 75
[1]; [16]
  Plant response rating, Russian Thistle: 85
[1]; Preemergence, 31 g ai/ha
  Plant response rating (scale of 0 to 100), Russian Thistle: 10
[1]; Preemergence, 62 g ai/ha
  Plant response rating (scale of 0 to 100), Russian Thistle: 15
[1]; [17]
  Plant response rating, Russian Thistle: 65
[1]; [18]
  Plant response rating, Russian Thistle: 65
[1]; [19]
  Plant response rating, Russian Thistle: 75
[2]; [14]
  Bluegrass plant response rating: 10
[2]; [15]
  Plant response rating, Bluegrass: 30
[2]; [16]
  Plant response rating, Bluegrass: 35
[2]; Preemergence, 31 g ai/ha
  Plant response rating (scale of 0 to 100), Bluegrass: 15
[2]; [20]
  Plant response rating, Bluegrass: 45
[2]; [17]
  Plant response rating, Bluegrass: 65
[2]; [18]
  Plant response rating, Bluegrass: 80
[2]; [19]
  Plant response rating, Bluegrass: 20
[3]; [14]
  Bromegrass, Downy plant response rating: 55
[3]; [15]
  Plant response rating, Bromegrass, Downy: 60
[3]; [16]
  Plant response rating, Bromegrass, Downy: 60
[3]; Preemergence, 31 g ai/ha
  Plant response rating (scale of 0 to 100), Bromegrass, Downy: 45
[3]; [20]
  Plant response rating, Bromegrass, Downy: 65
[3]; [17]
  Plant response rating, Bromegrass, Downy: 80
[3]; [18]
  Plant response rating, Bromegrass, Downy: 85
[3]; [19]
  Plant response rating, Bromegrass, Downy: 45
[4]; [14]
  Buckwheat, Wild plant response rating: 85
[4]; [15]
  Plant response rating, Buckwheat, Wild: 100
[4]; [16]
  Plant response rating, Buckwheat, Wild: 100
[4]; Preemergence, 31 g ai/ha
  Plant response rating (scale of 0 to 100), Buckwheat, Wild: 35
[4]; [20]
  Plant response rating, Buckwheat, Wild: 0
[4]; [17]
  Plant response rating, Buckwheat, Wild: 15
[4]; [18]
  Plant response rating, Buckwheat, Wild: 0
[4]; [19]
  Plant response rating, Buckwheat, Wild: 100
[5]; [14]
  Canarygrass plant response rating: 50
[5]; [15]
  Plant response rating, Canarygrass: 75
[5]; [16]
  Plant response rating, Canarygrass: 85
[5]; Preemergence, 31 g ai/ha
  Plant response rating (scale of 0 to 100), Canarygrass: 75
[5]; Preemergence, 62 g ai/ha
  Plant response rating (scale of 0 to 100), Canarygrass: 85
[5]; [17]
  Plant response rating, Canarygrass: 90
[5]; [18]
  Plant response rating, Canarygrass: 95
[5]; [19]
  Plant response rating, Canarygrass: 55
[6]; [14]
  Chamomile plant response rating: 90
[6]; [15]
  Plant response rating, Chamomile: 100
[6]; [16]
  Plant response rating, Chamomile: 100
[6]; Preemergence, 31 g ai/ha
  Plant response rating (scale of 0 to 100), Chamomile: 100
[6]; Preemergence, 62 g ai/ha
  Plant response rating (scale of 0 to 100), Chamomile: 100
[6]; [17]
  Plant response rating, Chamomile: 100
[6]; [18]
  Plant response rating, Chamomile: 100
[6]; [19]
  Plant response rating, Chamomile: 100
[7]; [14]
  Field Poppy plant response rating: 70
[7]; [15]
  Plant response rating, Field Poppy: 95
[7]; [16]
  Plant response rating, Field Poppy: 100
[7]; Preemergence, 31 g ai/ha
  Plant response rating (scale of 0 to 100), Field Poppy: 95
[7]; Preemergence, 62 g ai/ha
  Plant response rating (scale of 0 to 100), Field Poppy: 100
[7]; [17]
  Plant response rating, Field Poppy: 100
[7]; [18]
  Plant response rating, Field Poppy: 100
[7]; [19]
  Plant response rating, Field Poppy: 85
[8]; [14]
  Field Violet plant response rating: 95
[8]; [15]
  Plant response rating, Field Violet: 100
[8]; [16]
  Plant response rating, Field Violet: 100
[8]; Preemergence, 31 g ai/ha
  Plant response rating (scale of 0 to 100), Field Violet: 100
[8]; Preemergence, 62 g ai/ha
  Plant response rating (scale of 0 to 100), Field Violet: 90
[8]; [17]
  Plant response rating, Field Violet: 95
[8]; [18]
  Plant response rating, Field Violet: 100
[8]; [19]
  Plant response rating, Field Violet: 100
[9]; [14]
  Mustard, Wild plant response rating: 25
[9]; [15]
  Plant response rating, Mustard, Wild: 40
[9]; [16]
  Plant response rating, Mustard, Wild: 70
[9]; Preemergence, 31 g ai/ha
  Plant response rating (scale of 0 to 100), Mustard, Wild: 0
[9]; Preemergence, 62 g ai/ha
  Plant response rating (scale of 0 to 100), Mustard, Wild: 0
[9]; [17]
  Plant response rating, Mustard, Wild: 25
[9]; [18]
  Plant response rating, Mustard, Wild: 15
[9]; [19]
  Plant response rating, Mustard, Wild: 35
[10]; [14]
  Oat, Wild plant response rating: 90
[10]; [15]
  Plant response rating, Oat, Wild: 95
[10]; [16]
  Plant response rating, Oat, Wild: 95
[10]; Preemergence, 31 g ai/ha
  Plant response rating (scale of 0 to 100), Oat, Wild: 80
[10]; Preemergence, 62 g ai/ha
  Plant response rating (scale of 0 to 100), Oat, Wild: 85
[10]; [17]
  Plant response rating, Oat, Wild: 95
[10]; [18]
  Plant response rating, Oat, Wild: 95
[10]; [19]
  Plant response rating, Oat, Wild: 90
[11]; [14]
  Oilseed Rape plant response rating: 25
[11]; [15]
  Plant response rating, Oilseed Rape: 60
[11]; [16]
  Plant response rating, Oilseed Rape: 80
[11]; Preemergence, 31 g ai/ha
  Plant response rating (scale of 0 to 100), Oilseed Rape: 30
[11]; Preemergence, 62 g ai/ha
  Plant response rating (scale of 0 to 100), Oilseed Rape: 35
[11]; [17]
  Plant response rating, Oilseed Rape: 35
[11]; [18]
  Plant response rating, Oilseed Rape: 60
[11]; [19]
  Plant response rating, Oilseed Rape: 45
[12]; [14]
  Radish, Wild plant response rating: 25
[12]; [15]
  Plant response rating, Radish, Wild: 50
[12]; [16]
  Plant response rating, Radish, Wild: 60
[12]; Preemergence, 31 g ai/ha
  Plant response rating (scale of 0 to 100), Radish, Wild: 65
[12]; Preemergence, 62 g ai/ha
  Plant response rating (scale of 0 to 100), Radish, Wild: 60
[12]; [17]
  Plant response rating, Radish, Wild: 60
[12]; [18]
  Plant response rating, Radish, Wild: 100
[12]; [19]
  Plant response rating, Radish, Wild: 20
[13]; [14]
  Wheat, Spring plant response rating: 0
[13]; [15]
  Plant response rating, Wheat, Spring: 0
[13]; [16]
  Plant response rating, Wheat, Spring: 5
[13]; Preemergence, 31 g ai/ha
  Plant response rating (scale of 0 to 100), Wheat, Spring: 0
[13]; Preemergence, 62 g ai/ha
  Plant response rating (scale of 0 to 100), Wheat, Spring: 0
[13]; [17]
  Plant response rating, Wheat, Spring: 15
[13]; [18]
  Plant response rating, Wheat, Spring: 40
[13]; [19]
  Plant response rating, Wheat, Spring: 0

Reference: patent US10597388B2, “Pyridazinone herbicides” (FMC CORPORATION, priority 2014, dated 2020)
